{"source": "patent US12343326B2", "about": "“Psychoactive medicines and their use for treating psychiatric and neurological conditions and disorders” (Transcend Therapeutics, Inc., priority 2021, dated 2025)", "assay_in_all_cases": "β-arrestin based GPCR screen (PathHunter / GPCRmax), antagonist mode", "key": {"168 GPCRs [1]": {"molecular_target": "168 GPCRs (Homo sapiens, UniProt Q9H3N8)"}, "168 GPCRs [2]": {"molecular_target": "168 GPCRs (Homo sapiens, UniProt Q15722)", "details": "LTB4R"}, "168 GPCRs [3]": {"molecular_target": "168 GPCRs (Homo sapiens, UniProt P43119)", "sequence (P43119 whole entry)": "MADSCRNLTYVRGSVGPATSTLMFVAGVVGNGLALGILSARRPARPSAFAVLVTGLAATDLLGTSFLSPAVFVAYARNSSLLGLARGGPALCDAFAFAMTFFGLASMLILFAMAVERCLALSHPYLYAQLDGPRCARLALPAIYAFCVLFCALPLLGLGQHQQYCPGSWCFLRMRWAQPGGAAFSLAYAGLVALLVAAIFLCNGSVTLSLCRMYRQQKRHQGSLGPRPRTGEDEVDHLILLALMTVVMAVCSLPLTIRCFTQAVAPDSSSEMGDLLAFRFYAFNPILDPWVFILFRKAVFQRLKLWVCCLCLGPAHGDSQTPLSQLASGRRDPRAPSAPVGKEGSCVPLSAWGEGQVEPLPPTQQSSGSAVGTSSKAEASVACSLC", "details": "PTGIR"}, "168 GPCRs [4]": {"molecular_target": "168 GPCRs (Homo sapiens, UniProt P18089)", "sequence (P18089 whole entry)": "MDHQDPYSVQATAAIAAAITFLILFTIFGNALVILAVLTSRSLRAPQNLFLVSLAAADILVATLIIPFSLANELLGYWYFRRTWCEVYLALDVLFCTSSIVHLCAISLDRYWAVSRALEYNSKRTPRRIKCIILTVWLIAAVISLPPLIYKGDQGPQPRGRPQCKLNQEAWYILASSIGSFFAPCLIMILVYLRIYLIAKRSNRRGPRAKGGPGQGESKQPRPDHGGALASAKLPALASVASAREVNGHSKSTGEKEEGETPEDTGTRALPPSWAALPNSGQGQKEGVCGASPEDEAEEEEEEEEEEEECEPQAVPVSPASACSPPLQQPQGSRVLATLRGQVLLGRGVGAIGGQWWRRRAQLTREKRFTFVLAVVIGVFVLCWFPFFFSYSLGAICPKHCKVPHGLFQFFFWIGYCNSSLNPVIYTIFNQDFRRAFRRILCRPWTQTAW", "details": "ADRA2B, Antagonist"}, "168 GPCRs [5]": {"molecular_target": "168 GPCRs (Homo sapiens, UniProt P41146)", "sequence (P41146 whole entry)": "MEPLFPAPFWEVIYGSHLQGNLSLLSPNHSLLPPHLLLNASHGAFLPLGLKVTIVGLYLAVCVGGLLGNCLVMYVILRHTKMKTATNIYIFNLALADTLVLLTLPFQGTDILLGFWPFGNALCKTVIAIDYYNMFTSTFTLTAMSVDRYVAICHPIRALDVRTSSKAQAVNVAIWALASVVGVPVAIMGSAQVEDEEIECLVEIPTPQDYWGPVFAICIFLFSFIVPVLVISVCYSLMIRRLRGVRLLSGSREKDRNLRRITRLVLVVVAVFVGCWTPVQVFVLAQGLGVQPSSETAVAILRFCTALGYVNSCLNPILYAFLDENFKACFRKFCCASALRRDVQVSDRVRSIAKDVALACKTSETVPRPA"}, "168 GPCRs [6]": {"molecular_target": "168 GPCRs (Homo sapiens, UniProt P25025)", "sequence (P25025 whole entry)": "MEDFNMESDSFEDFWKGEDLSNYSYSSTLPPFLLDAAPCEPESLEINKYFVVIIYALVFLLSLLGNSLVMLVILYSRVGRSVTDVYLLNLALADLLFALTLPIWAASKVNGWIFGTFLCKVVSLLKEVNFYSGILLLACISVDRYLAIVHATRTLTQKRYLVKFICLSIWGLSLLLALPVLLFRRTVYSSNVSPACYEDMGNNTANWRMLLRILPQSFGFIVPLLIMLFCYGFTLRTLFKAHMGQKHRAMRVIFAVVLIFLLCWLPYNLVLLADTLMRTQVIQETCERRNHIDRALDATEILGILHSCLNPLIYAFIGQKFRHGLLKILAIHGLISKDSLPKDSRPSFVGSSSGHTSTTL"}, "168 GPCRs [7]": {"molecular_target": "168 GPCRs (Homo sapiens, UniProt P25929)", "sequence (P25929 whole entry)": "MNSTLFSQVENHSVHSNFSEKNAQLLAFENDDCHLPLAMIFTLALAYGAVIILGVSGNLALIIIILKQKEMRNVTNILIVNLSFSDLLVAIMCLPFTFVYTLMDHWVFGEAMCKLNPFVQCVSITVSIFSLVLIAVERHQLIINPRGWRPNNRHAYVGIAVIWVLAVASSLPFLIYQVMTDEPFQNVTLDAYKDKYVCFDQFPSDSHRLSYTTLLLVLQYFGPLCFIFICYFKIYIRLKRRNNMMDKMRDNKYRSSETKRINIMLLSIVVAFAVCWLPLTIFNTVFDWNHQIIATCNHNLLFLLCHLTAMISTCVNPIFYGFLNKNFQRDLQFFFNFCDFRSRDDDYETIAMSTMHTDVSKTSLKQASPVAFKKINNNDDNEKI", "details": "NPY1R"}, "168 GPCRs [8]": {"molecular_target": "168 GPCRs (Homo sapiens, UniProt P51679)", "sequence (P51679 whole entry)": "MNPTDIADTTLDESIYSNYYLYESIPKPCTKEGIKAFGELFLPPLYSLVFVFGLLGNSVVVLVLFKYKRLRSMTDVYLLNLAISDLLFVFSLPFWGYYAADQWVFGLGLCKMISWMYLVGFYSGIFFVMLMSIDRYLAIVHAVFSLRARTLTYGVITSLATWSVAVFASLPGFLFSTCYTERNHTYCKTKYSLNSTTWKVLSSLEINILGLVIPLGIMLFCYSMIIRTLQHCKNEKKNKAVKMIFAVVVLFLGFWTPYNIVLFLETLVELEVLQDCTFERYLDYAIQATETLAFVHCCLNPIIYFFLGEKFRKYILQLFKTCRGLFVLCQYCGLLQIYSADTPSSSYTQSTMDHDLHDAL", "details": "CCR4, Antagonist"}, "168 GPCRs [9]": {"molecular_target": "168 GPCRs (Homo sapiens, UniProt P51685)", "sequence (P51685 whole entry)": "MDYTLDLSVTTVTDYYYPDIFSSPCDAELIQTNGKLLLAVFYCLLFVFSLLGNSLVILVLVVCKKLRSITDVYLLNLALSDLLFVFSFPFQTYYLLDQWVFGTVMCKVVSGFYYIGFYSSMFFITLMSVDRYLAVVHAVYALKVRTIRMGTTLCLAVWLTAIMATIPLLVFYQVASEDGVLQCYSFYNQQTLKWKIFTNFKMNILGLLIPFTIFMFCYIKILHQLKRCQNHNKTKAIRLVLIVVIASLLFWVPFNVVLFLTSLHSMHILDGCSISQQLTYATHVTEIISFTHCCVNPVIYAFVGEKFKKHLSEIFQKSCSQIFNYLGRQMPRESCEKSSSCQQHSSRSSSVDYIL", "details": "CCR8, Antagonist"}, "168 GPCRs [10]": {"molecular_target": "168 GPCRs (Homo sapiens, UniProt P21917)", "sequence (P21917 whole entry)": "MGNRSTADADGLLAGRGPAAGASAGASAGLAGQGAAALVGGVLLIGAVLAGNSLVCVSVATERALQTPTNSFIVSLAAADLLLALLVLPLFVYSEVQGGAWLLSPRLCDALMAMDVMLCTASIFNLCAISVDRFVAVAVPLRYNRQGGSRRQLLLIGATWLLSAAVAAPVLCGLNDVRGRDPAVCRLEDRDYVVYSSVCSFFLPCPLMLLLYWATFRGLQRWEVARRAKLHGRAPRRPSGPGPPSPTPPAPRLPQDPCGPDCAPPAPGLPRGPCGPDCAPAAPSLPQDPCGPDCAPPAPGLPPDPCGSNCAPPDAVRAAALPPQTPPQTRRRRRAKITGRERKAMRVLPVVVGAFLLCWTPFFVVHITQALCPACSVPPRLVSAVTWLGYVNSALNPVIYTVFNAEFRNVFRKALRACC"}, "168 GPCRs [11]": {"molecular_target": "T1, 168 GPCRs (Homo sapiens, UniProt P30939)", "T1 sequence (P30939 1-366)": "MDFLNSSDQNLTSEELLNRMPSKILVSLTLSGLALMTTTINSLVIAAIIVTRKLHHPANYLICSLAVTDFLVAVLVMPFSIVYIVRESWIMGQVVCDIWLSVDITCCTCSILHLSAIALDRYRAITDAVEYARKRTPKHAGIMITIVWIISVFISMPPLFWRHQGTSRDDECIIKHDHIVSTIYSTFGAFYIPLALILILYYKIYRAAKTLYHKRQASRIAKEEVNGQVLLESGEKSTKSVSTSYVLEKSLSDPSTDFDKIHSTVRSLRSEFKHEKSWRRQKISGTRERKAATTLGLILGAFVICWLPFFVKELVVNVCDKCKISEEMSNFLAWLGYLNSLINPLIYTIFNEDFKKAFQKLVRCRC", "details": "HTR1F"}, "168 GPCRs [12]": {"molecular_target": "168 GPCRs (Homo sapiens, UniProt P48039)", "details": "MTNR1A"}, "168 GPCRs [13]": {"molecular_target": "168 GPCRs (Homo sapiens, UniProt P30988)", "sequence (P30988 25-474)": "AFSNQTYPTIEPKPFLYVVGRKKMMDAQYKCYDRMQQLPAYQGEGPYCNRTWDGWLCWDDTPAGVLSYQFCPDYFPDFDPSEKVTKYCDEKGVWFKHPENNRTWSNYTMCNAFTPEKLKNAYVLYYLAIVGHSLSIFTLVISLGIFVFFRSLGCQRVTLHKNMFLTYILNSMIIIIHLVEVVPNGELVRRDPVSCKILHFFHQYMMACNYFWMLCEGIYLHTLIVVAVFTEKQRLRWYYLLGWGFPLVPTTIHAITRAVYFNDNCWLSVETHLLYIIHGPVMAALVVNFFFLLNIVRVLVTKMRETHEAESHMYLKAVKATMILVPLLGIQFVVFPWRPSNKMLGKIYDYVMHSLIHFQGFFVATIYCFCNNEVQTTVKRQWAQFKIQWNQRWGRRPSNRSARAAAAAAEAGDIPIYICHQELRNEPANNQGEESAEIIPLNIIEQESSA", "details": "Antagonist"}, "168 GPCRs [14]": {"molecular_target": "168 GPCRs (Homo sapiens, UniProt P47901)", "details": "AVPR1B, Antagonist"}, "168 GPCRs [15]": {"molecular_target": "168 GPCRs (Homo sapiens, UniProt P41145)"}, "168 GPCRs [16]": {"molecular_target": "168 GPCRs (Homo sapiens, UniProt P23945)", "details": "FSHR"}, "168 GPCRs [17]": {"molecular_target": "168 GPCRs (Homo sapiens, UniProt P32241)", "sequence (P32241 31-457)": "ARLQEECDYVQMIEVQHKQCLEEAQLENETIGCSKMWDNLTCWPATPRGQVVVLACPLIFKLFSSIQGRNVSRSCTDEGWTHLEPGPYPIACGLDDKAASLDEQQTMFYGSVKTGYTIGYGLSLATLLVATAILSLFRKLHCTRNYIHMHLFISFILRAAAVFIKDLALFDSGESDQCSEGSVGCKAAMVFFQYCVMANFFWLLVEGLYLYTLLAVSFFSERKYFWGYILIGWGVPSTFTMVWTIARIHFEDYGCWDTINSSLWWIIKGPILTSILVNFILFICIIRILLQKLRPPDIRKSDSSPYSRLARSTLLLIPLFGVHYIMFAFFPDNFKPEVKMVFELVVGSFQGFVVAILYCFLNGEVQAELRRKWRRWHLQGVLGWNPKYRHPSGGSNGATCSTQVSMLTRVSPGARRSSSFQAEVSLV"}, "168 GPCRs [18]": {"molecular_target": "168 GPCRs (Homo sapiens, UniProt P34972)", "sequence (P34972 whole entry)": "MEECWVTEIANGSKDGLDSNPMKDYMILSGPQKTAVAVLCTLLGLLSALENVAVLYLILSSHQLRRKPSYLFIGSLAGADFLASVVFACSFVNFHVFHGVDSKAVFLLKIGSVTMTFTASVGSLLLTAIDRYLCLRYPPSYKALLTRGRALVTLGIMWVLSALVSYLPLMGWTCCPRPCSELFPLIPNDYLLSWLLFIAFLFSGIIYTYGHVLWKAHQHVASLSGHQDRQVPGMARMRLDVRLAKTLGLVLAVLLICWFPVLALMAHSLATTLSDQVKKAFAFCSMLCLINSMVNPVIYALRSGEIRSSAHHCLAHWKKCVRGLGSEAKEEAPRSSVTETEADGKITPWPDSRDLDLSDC"}, "168 GPCRs [19]": {"molecular_target": "168 GPCRs (Homo sapiens, UniProt Q9HB89)", "details": "NMU1R"}, "168 GPCRs [20]": {"molecular_target": "168 GPCRs (Homo sapiens, UniProt P34998)", "sequence (P34998 24-415)": "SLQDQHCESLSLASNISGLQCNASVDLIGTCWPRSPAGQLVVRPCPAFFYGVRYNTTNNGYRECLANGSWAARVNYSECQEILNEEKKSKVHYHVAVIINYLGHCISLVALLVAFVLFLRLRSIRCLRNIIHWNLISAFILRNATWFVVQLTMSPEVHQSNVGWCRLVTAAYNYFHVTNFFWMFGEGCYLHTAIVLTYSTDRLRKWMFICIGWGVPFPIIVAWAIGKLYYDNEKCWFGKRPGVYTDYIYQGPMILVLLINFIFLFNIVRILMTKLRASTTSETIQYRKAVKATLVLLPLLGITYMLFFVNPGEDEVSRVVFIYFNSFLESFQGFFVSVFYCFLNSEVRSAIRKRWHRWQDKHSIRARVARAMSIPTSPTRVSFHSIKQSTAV"}}, "data": [{"smiles": "CNC(C)C(=O)c1ccc2c(c1)OCO2", "note": "(centres unmarked) [methylone, 3,4-methylenedioxy-N-methylcathinone]", "values": [{"measurement": "activity at 10 µM", "setting": "168 GPCRs [1]; HRH4, Antagonist mode, 10 uM", "result": -14, "unit": "%"}, {"measurement": "activity at 1 µM", "setting": "168 GPCRs [1]; HRH4, Antagonist, 1 uM", "result": -11.6, "unit": "%"}, {"measurement": "activity at 10 µM", "setting": "168 GPCRs [2]; Antagonist mode, 10 uM", "result": -5.2, "unit": "%"}, {"measurement": "activity at 1 µM", "setting": "168 GPCRs [2]; Antagonist, 1 uM", "result": 3.5, "unit": "%"}, {"measurement": "activity at 10 µM", "setting": "168 GPCRs [3]; Antagonist mode, 10 uM", "result": -21.5, "unit": "%"}, {"measurement": "activity at 1 µM", "setting": "168 GPCRs [3]; Antagonist, 1 uM", "result": 12.4, "unit": "%"}, {"measurement": "activity at 1 µM", "setting": "168 GPCRs [4]; 1 uM", "result": 8.5, "unit": "%"}, {"measurement": "activity at 10 µM", "setting": "168 GPCRs [4]; 10 uM", "result": 6.3, "unit": "%"}, {"measurement": "activity at 10 µM", "setting": "168 GPCRs [5]; OPRL1, Antagonist mode, 10 uM", "result": 13.2, "unit": "%"}, {"measurement": "activity at 1 µM", "setting": "168 GPCRs [5]; OPRL1, Antagonist, 1 uM", "result": 17.1, "unit": "%"}, {"measurement": "activity at 10 µM", "setting": "168 GPCRs [6]; CXCR2, Antagonist mode, 10 uM", "result": -1, "unit": "%"}, {"measurement": "activity at 1 µM", "setting": "168 GPCRs [6]; CXCR2, Antagonist, 1 uM", "result": -7.6, "unit": "%"}, {"measurement": "activity at 10 µM", "setting": "168 GPCRs [7]; Antagonist mode, 10 uM", "result": 5.4, "unit": "%"}, {"measurement": "activity at 1 µM", "setting": "168 GPCRs [7]; Antagonist, 1 uM", "result": 0.2, "unit": "%"}, {"measurement": "activity at 1 µM", "setting": "168 GPCRs [8]; 1 uM", "result": 10, "unit": "%"}, {"measurement": "activity at 10 µM", "setting": "168 GPCRs [8]; 10 uM", "result": 9.5, "unit": "%"}, {"measurement": "activity at 1 µM", "setting": "168 GPCRs [9]; 1 uM", "result": 4.7, "unit": "%"}, {"measurement": "activity at 10 µM", "setting": "168 GPCRs [9]; 10 uM", "result": -0.3, "unit": "%"}, {"measurement": "activity at 10 µM", "setting": "168 GPCRs [10]; DRD4, Antagonist mode, 10 uM", "result": 12.2, "unit": "%"}, {"measurement": "activity at 1 µM", "setting": "168 GPCRs [10]; DRD4, Antagonist, 1 uM", "result": 8.4, "unit": "%"}, {"measurement": "activity at 10 µM", "setting": "168 GPCRs [11]; Antagonist mode, 10 uM", "result": 9.2, "unit": "%"}, {"measurement": "activity at 1 µM", "setting": "168 GPCRs [11]; Antagonist, 1 uM", "result": 14.4, "unit": "%"}, {"measurement": "activity at 10 µM", "setting": "168 GPCRs [12]; Antagonist mode, 10 uM", "result": 7.8, "unit": "%"}, {"measurement": "activity at 1 µM", "setting": "168 GPCRs [12]; Antagonist, 1 uM", "result": 30.8, "unit": "%"}, {"measurement": "activity at 1 µM", "setting": "168 GPCRs [13]; CALCR-RAMP2", "result": -10.6, "unit": "%"}, {"measurement": "activity at 10 µM", "setting": "168 GPCRs [13]; CALCR-RAMP2", "result": -19.6, "unit": "%"}, {"measurement": "activity at 1 µM", "setting": "168 GPCRs [13]; CALCR-RAMP3", "result": -8.9, "unit": "%"}, {"measurement": "activity at 10 µM", "setting": "168 GPCRs [13]; CALCR-RAMP3", "result": 3.3, "unit": "%"}, {"measurement": "activity at 1 µM", "setting": "168 GPCRs [13]; CALCR", "result": 5.4, "unit": "%"}, {"measurement": "activity at 10 µM", "setting": "168 GPCRs [13]; CALCR", "result": -4.4, "unit": "%"}, {"measurement": "activity at 1 µM", "setting": "168 GPCRs [14]; 1 uM", "result": 9.8, "unit": "%"}, {"measurement": "activity at 10 µM", "setting": "168 GPCRs [14]; 10 uM", "result": 3.5, "unit": "%"}, {"measurement": "activity at 10 µM", "setting": "168 GPCRs [15]; OPRK1, Antagonist mode, 10 uM", "result": 10.4, "unit": "%"}, {"measurement": "activity at 1 µM", "setting": "168 GPCRs [15]; OPRK1, Antagonist, 1 uM", "result": 11.8, "unit": "%"}, {"measurement": "activity at 10 µM", "setting": "168 GPCRs [16]; Antagonist mode, 10 uM", "result": -8.4, "unit": "%"}, {"measurement": "activity at 1 µM", "setting": "168 GPCRs [16]; Antagonist, 1 uM", "result": -11.8, "unit": "%"}, {"measurement": "activity at 10 µM", "setting": "168 GPCRs [17]; VIPR1, Antagonist mode, 10 uM", "result": 5.3, "unit": "%"}, {"measurement": "activity at 1 µM", "setting": "168 GPCRs [17]; VIPR1, Antagonist, 1 uM", "result": -0.7, "unit": "%"}, {"measurement": "activity at 10 µM", "setting": "168 GPCRs [18]; CNR2, Antagonist mode, 10 uM", "result": -3.2, "unit": "%"}, {"measurement": "activity at 1 µM", "setting": "168 GPCRs [18]; CNR2, Antagonist, 1 uM", "result": 3.6, "unit": "%"}, {"measurement": "activity at 10 µM", "setting": "168 GPCRs [19]; Antagonist mode, 10 uM", "result": -9.3, "unit": "%"}, {"measurement": "activity at 1 µM", "setting": "168 GPCRs [19]; Antagonist, 1 uM", "result": -6.7, "unit": "%"}, {"measurement": "activity at 10 µM", "setting": "168 GPCRs [20]; CRHR1, Antagonist mode, 10 uM", "result": 0.6, "unit": "%"}, {"measurement": "activity at 1 µM", "setting": "168 GPCRs [20]; CRHR1, Antagonist, 1 uM", "result": 1.3, "unit": "%"}]}]}
